Measured values taken from the supplement of paper PMC10307832.

Experiments:
Assay in all cases: relative viability (nuclei count vs DMSO), 5 days (fraction); higher = more cells survive
NCI-H1792 = system: NCI-H1792
Procedure, shortened: (§1)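 One day after seeding in 1536-well plates, lung cancer cell lines were dosed by pin tool. Dosing was either single-drug or a fixed anchor-drug dose plus five library-drug doses (not always all listed) in √10 steps. After 5 days, nuclei were stained in one fix-and-stain step and counted on 4× images, and relative viability is the nuclei count of treated wells over that of vehicle wells, given as the median of duplicate plates.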

NCI-H460 = system: NCI-H460
Procedure, shortened: as §1

HCC-78 = system: HCC-78
Procedure, shortened: as §1

LU99A = system: LU99A
Procedure, shortened: as §1

SK-LU-1 = system: SK-LU-1
Procedure, shortened: as §1

NCI-H1666 = system: NCI-H1666
Procedure, shortened: as §1

LXF-289 = system: LXF-289
Procedure, shortened: as §1

HCC-366 = system: HCC-366
Procedure, shortened: as §1

NCI-H2009 = system: NCI-H2009
Procedure, shortened: as §1

NCI-H1915 = system: NCI-H1915
Procedure, shortened: as §1

UMC-11 = system: UMC-11
Procedure, shortened: as §1

A-427 = system: A-427
Procedure, shortened: as §1

LC-2-ad = system: LC-2-ad
Procedure, shortened: as §1

NCI-H358 = system: NCI-H358
Procedure, shortened: as §1

SW 900 = system: SW 900
Procedure, shortened: as §1

NCI-H2170 = system: NCI-H2170
Procedure, shortened: as §1

COR-L 105 = system: COR-L 105
Procedure, shortened: as §1

HOP-62 = system: HOP-62
Procedure, shortened: as §1

NCI-H1793 = system: NCI-H1793
Procedure, shortened: as §1

NCI-H1944 = system: NCI-H1944
Procedure, shortened: as §1

EPLC-272H = system: EPLC-272H
Procedure, shortened: as §1

NCI-H2085 = system: NCI-H2085
Procedure, shortened: as §1

`Nc1ccn([C@@H]2O[C@H](CO)[C@@H](O)[C@@H]2O)c(=O)n1` [Cytarabine] + CC(=O)Nc1cccc(-n2c(=O)n(C3CC3)c(=O)c3c(Nc4ccc(I)cc4F)n(C)c(=O)c(C)c32)c1 [Trametinib] (partner 0.02 µM) was tested, and the relative viability (NCI-H1792; first compound 0.01581 µM) was 0.438, the relative viability (NCI-H1792; first compound 0.05 µM) was 0.356 and the relative viability (NCI-H1792; first compound 0.1581 µM) was 0.213. For the same compound, the relative viability (NCI-H1792; first compound 0.5 µM) was 0.118, the relative viability (NCI-H460; first compound 0.005 µM) was 0.13 and the relative viability (NCI-H460; first compound 0.01581 µM) was 0.111. The relative viability (NCI-H460; first compound 0.05 µM) was 0.103, the relative viability (NCI-H460; first compound 0.1581 µM) was 0.0544 and the relative viability (NCI-H460; first compound 0.5 µM) was 0.0417. It also gave a relative viability (HCC-78; first compound 0.005 µM) of 1.06, a relative viability (HCC-78; first compound 0.01581 µM) of 0.688 and a relative viability (HCC-78; first compound 0.05 µM) of 0.575. The relative viability (HCC-78; first compound 0.1581 µM) was 0.478, the relative viability (HCC-78; first compound 0.5 µM) was 0.37 and the relative viability (LU99A; first compound 0.005 µM) was 0.588. For the same compound, the relative viability (LU99A; first compound 0.01581 µM) was 0.447, the relative viability (LU99A; first compound 0.05 µM) was 0.497 and the relative viability (LU99A; first compound 0.1581 µM) was 0.549. For the same compound, the relative viability (LU99A; first compound 0.5 µM) was 0.544, the relative viability (SK-LU-1; first compound 0.005 µM) was 0.416 and the relative viability (SK-LU-1; first compound 0.01581 µM) was 0.454. It also gave a relative viability (SK-LU-1; first compound 0.05 µM) of 0.423, a relative viability (SK-LU-1; first compound 0.1581 µM) of 0.356 and a relative viability (SK-LU-1; first compound 0.5 µM) of 0.303. It also gave a relative viability (NCI-H1666; first compound 0.005 µM) of 0.806, a relative viability (NCI-H1666; first compound 0.01581 µM) of 0.728 and a relative viability (NCI-H1666; first compound 0.05 µM) of 0.76. The relative viability (NCI-H1666; first compound 0.1581 µM) was 0.646, the relative viability (NCI-H1666; first compound 0.5 µM) was 0.592 and the relative viability (LXF-289; first compound 0.005 µM) was 0.632. The relative viability (LXF-289; first compound 0.01581 µM) was 0.573, the relative viability (LXF-289; first compound 0.05 µM) was 0.62 and the relative viability (LXF-289; first compound 0.1581 µM) was 0.428. For the same compound, the relative viability (LXF-289; first compound 0.5 µM) was 0.287, the relative viability (HCC-366; first compound 0.005 µM) was 0.276 and the relative viability (HCC-366; first compound 0.01581 µM) was 0.33. It also gave a relative viability (HCC-366; first compound 0.05 µM) of 0.178, a relative viability (HCC-366; first compound 0.1581 µM) of 0.0948 and a relative viability (HCC-366; first compound 0.5 µM) of 0.086. It also gave a relative viability (NCI-H2009; first compound 0.005 µM) of 0.271, a relative viability (NCI-H2009; first compound 0.01581 µM) of 0.25 and a relative viability (NCI-H2009; first compound 0.05 µM) of 0.249. The relative viability (NCI-H2009; first compound 0.1581 µM) was 0.238, the relative viability (NCI-H2009; first compound 0.5 µM) was 0.137 and the relative viability (NCI-H1915; first compound 0.005 µM) was 0.438. It also gave a relative viability (NCI-H1915; first compound 0.01581 µM) of 0.285, a relative viability (NCI-H1915; first compound 0.05 µM) of 0.251 and a relative viability (NCI-H1915; first compound 0.1581 µM) of 0.211. For the same compound, the relative viability (NCI-H1915; first compound 0.5 µM) was 0.18, the relative viability (UMC-11; first compound 0.005 µM) was 0.487 and the relative viability (UMC-11; first compound 0.01581 µM) was 0.424. The relative viability (UMC-11; first compound 0.05 µM) was 0.373, the relative viability (UMC-11; first compound 0.1581 µM) was 0.216 and the relative viability (UMC-11; first compound 0.5 µM) was 0.183. It also gave a relative viability (A-427; first compound 0.005 µM) of 0.714, a relative viability (A-427; first compound 0.01581 µM) of 0.616 and a relative viability (A-427; first compound 0.05 µM) of 0.381. The relative viability (A-427; first compound 0.1581 µM) was 0.273, the relative viability (A-427; first compound 0.5 µM) was 0.225 and the relative viability (LC-2-ad; first compound 0.005 µM) was 0.896. It also gave a relative viability (LC-2-ad; first compound 0.01581 µM) of 0.908, a relative viability (LC-2-ad; first compound 0.05 µM) of 0.893 and a relative viability (LC-2-ad; first compound 0.1581 µM) of 0.708. The relative viability (LC-2-ad; first compound 0.5 µM) was 0.47, the relative viability (NCI-H358; first compound 0.005 µM) was 0.126 and the relative viability (NCI-H358; first compound 0.01581 µM) was 0.108. For the same compound, the relative viability (NCI-H358; first compound 0.05 µM) was 0.103, the relative viability (NCI-H358; first compound 0.1581 µM) was 0.076 and the relative viability (NCI-H358; first compound 0.5 µM) was 0.0812. The relative viability (SW 900; first compound 0.005 µM) was 0.83, the relative viability (SW 900; first compound 0.01581 µM) was 0.653 and the relative viability (SW 900; first compound 0.05 µM) was 0.662. The relative viability (SW 900; first compound 0.1581 µM) was 0.23, the relative viability (SW 900; first compound 0.5 µM) was 0.243 and the relative viability (NCI-H2170; first compound 0.005 µM) was 0.741. For the same compound, the relative viability (NCI-H2170; first compound 0.01581 µM) was 0.665, the relative viability (NCI-H2170; first compound 0.05 µM) was 0.581 and the relative viability (NCI-H2170; first compound 0.1581 µM) was 0.374. For the same compound, the relative viability (NCI-H2170; first compound 0.5 µM) was 0.299, the relative viability (COR-L 105; first compound 0.005 µM) was 0.435 and the relative viability (COR-L 105; first compound 0.01581 µM) was 0.473. For the same compound, the relative viability (COR-L 105; first compound 0.05 µM) was 0.438, the relative viability (COR-L 105; first compound 0.1581 µM) was 0.315 and the relative viability (COR-L 105; first compound 0.5 µM) was 0.302. The relative viability (HOP-62; first compound 0.005 µM) was 0.352, the relative viability (HOP-62; first compound 0.01581 µM) was 0.327 and the relative viability (HOP-62; first compound 0.05 µM) was 0.261. For the same compound, the relative viability (HOP-62; first compound 0.1581 µM) was 0.23, the relative viability (HOP-62; first compound 0.5 µM) was 0.144 and the relative viability (NCI-H1793; first compound 0.005 µM) was 0.489. The relative viability (NCI-H1793; first compound 0.01581 µM) was 0.405, the relative viability (NCI-H1793; first compound 0.05 µM) was 0.398 and the relative viability (NCI-H1793; first compound 0.1581 µM) was 0.266. It also gave a relative viability (NCI-H1793; first compound 0.5 µM) of 0.258, a relative viability (NCI-H1944; first compound 0.005 µM) of 0.36 and a relative viability (NCI-H1944; first compound 0.01581 µM) of 0.287. It also gave a relative viability (NCI-H1944; first compound 0.05 µM) of 0.3, a relative viability (NCI-H1944; first compound 0.1581 µM) of 0.168 and a relative viability (NCI-H1944; first compound 0.5 µM) of 0.169. For the same compound, the relative viability (EPLC-272H; first compound 0.005 µM) was 0.302, the relative viability (EPLC-272H; first compound 0.01581 µM) was 0.246 and the relative viability (EPLC-272H; first compound 0.05 µM) was 0.283. It also gave a relative viability (EPLC-272H; first compound 0.1581 µM) of 0.211, a relative viability (EPLC-272H; first compound 0.5 µM) of 0.22 and a relative viability (NCI-H2085; first compound 0.005 µM) of 0.504. It also gave a relative viability (NCI-H2085; first compound 0.01581 µM) of 0.552, a relative viability (NCI-H2085; first compound 0.05 µM) of 0.5 and a relative viability (NCI-H2085; first compound 0.1581 µM) of 0.26. It also gave a relative viability (NCI-H2085; first compound 0.5 µM) of 0.39.
